Results reported in ChEMBL document CHEMBL4393656, “Cationic biaryl 1,2,3-triazolyl peptidomimetic amphiphiles targeting Clostridioides (Clostridium) difficile: Synthesis, antibacterial evaluation and an in vivo C. difficile infection model” (Eur J Med Chem, 2019).

Experiments:
Acinetobacter baumannii = assay: Growth inhibition of Acinetobacter baumannii ATCC 19606 incubated for 18 hrs without shaking by absorbance based monochromator plate reader analysis; format: organism-based, ATCC 19606 = CIP 70.34 = JCM 6841; conditions: in vitro
Escherichia coli = assay: Growth inhibition of Escherichia coli ATCC 25922 incubated for 18 hrs; format: organism-based
Streptococcus pneumoniae = assay: Growth inhibition of Streptococcus pneumoniae ATCC 49619 incubated in MHB medium with lysed horse blood and 5% CO2 for 24 hrs; format: organism-based
Clostridioides difficile [1] = assay: Antibacterial activity against Clostridium difficile ATCC 700057 incubated for 2 to 4 hrs in pre-reduced brucella broth supplemented with haemin/vitamin K and further incubation in anaerobic condition for 48 hrs; format: functional
[2] = Cytotoxicity against HEK293 cells assessed as decrease in cell viability after 20 hrs by resazurin dye-based fluorescence assay; conditions: human
Pseudomonas aeruginosa = assay: Growth inhibition of Pseudomonas aeruginosa ATCC 27853 incubated for 18 hrs; format: organism-based
Enterococcus faecalis = assay: Growth inhibition of Enterococcus faecalis ATCC 29212 incubated in MHB broth for 24 hrs; format: organism-based
Klebsiella pneumoniae = assay: Growth inhibition of Klebsiella pneumoniae ATCC 700603 incubated for 18 hrs; format: organism-based
Staphylococcus aureus [3] = assay: Growth inhibition of Staphylococcus aureus ATCC 29213 incubated in MHB broth for 24 hrs; format: organism-based
Clostridioides difficile [4] = assay: Antibacterial activity against Clostridium difficile NSW132 RT027 incubated for 2 to 4 hrs in pre-reduced brucella broth supplemented with haemin/vitamin K and further incubation in anaerobic condition for 48 hrs; format: functional
Staphylococcus aureus [5] = assay: Growth inhibition of methicillin-resistant Staphylococcus aureus ATCC 43300 incubated for 18 hrs; format: organism-based

Molecule	MIC (Acinetobacter baumannii)	MIC (Escherichia coli)	MIC (Streptococcus pneumoniae)	MIC (Clostridioides difficile [1])	CC50 at 20 h [2]	MIC (Pseudomonas aeruginosa)	MIC (Enterococcus faecalis)	MIC (Klebsiella pneumoniae)	MIC (Staphylococcus aureus [3])	MIC (Clostridioides difficile [4])	MIC (Staphylococcus aureus [5])
CC(C)CCOc1ccccc1-c1ccccc1OCc1cn([C@H](CCCNC(=N)N)C(=O)NCc2ccc(C(F)(F)F)cc2)nn1.Cl	> 32 µg/mL	> 32 µg/mL	32 µg/mL	128 µg/mL	> 32 µg/mL	> 32 µg/mL	16 µg/mL	> 32 µg/mL	16 µg/mL	128 µg/mL	
CC(C)CCOc1ccc2ccccc2c1-c1c(OCc2cn([C@H](CCCCN)C(=O)N[C@H](CCCNC(=N)N)C(=O)N3CCCCC3)nn2)ccc2ccccc12.Cl.Cl	8 µg/mL	32 µg/mL	8 µg/mL	16 µg/mL	16.8 µg/mL	16 µg/mL	8 µg/mL	16 µg/mL	8 µg/mL	32 µg/mL	2 µg/mL
CC(C)CCOc1ccccc1-c1ccccc1OCc1cn([C@H](CCCCN)C(=O)N[C@H](CCCNC(=N)N)Cn2cc(CC3CCCCC3)nn2)nn1.Cl.Cl	8 µg/mL	8 µg/mL	8 µg/mL	16 µg/mL	19.1 µg/mL	32 µg/mL	4 µg/mL	16 µg/mL	4 µg/mL	16 µg/mL	2 µg/mL
CC(C)CCOc1ccccc1-c1ccccc1OCc1cn([C@H](CCCCN)C(=O)NCc2ccc(C(F)(F)F)cc2)nn1.Cl	32 µg/mL	> 32 µg/mL	8 µg/mL	32 µg/mL	> 32 µg/mL	> 32 µg/mL	4 µg/mL	> 32 µg/mL	4 µg/mL	32 µg/mL	8 µg/mL
CC(C)CCOc1ccccc1-c1ccccc1OCc1cn([C@H](CCCNC(=N)N)C(=O)N[C@H](CCCCN)Cn2cc(C3CCCCC3)nn2)nn1.Cl.Cl	16 µg/mL	16 µg/mL	2 µg/mL	8 µg/mL	> 32 µg/mL	8 µg/mL	8 µg/mL	16 µg/mL	8 µg/mL	16 µg/mL	4 µg/mL
CC(C)CCOc1ccccc1-c1ccccc1OCc1cn([C@H](CCCNC(=N)N)C(=O)NC2CC2)nn1.Cl	> 32 µg/mL	> 32 µg/mL	8 µg/mL	64 µg/mL	20 µg/mL	> 32 µg/mL	32 µg/mL	> 32 µg/mL	16 µg/mL	128 µg/mL	
CC(C)CCOc1ccccc1-c1ccccc1OCc1cn([C@H](CCCCN)C(=O)NC2CCCCC2)nn1.Cl	32 µg/mL	> 32 µg/mL	8 µg/mL	16 µg/mL	> 32 µg/mL	32 µg/mL	16 µg/mL	> 32 µg/mL	8 µg/mL	32 µg/mL	8 µg/mL
CC(C)CCOc1ccccc1-c1ccccc1OCc1cn([C@H](CCCNC(=N)N)C(=O)NCC2CCCCC2)nn1.Cl	> 32 µg/mL	> 32 µg/mL	8 µg/mL	32 µg/mL	16.9 µg/mL	> 32 µg/mL	8 µg/mL	> 32 µg/mL	4 µg/mL	64 µg/mL	4 µg/mL
CC(C)CCOc1ccccc1-c1ccccc1OCc1cn([C@H](CCCNC(=N)N)C(=O)Nc2ccccc2)nn1.Cl	> 32 µg/mL	> 32 µg/mL	2 µg/mL	16 µg/mL	21.6 µg/mL	> 32 µg/mL	2 µg/mL	> 32 µg/mL	2 µg/mL	32 µg/mL	8 µg/mL
CC(C)CCOc1ccccc1-c1ccccc1OCc1cn([C@H](CCCCN)C(=O)NCc2ccccc2)nn1.Cl	32 µg/mL	> 32 µg/mL	8 µg/mL	32 µg/mL	> 32 µg/mL	32 µg/mL	16 µg/mL	> 32 µg/mL	8 µg/mL	32 µg/mL	
CC(C)CCOc1ccccc1-c1ccccc1OCc1cn([C@H](CCCNC(=N)N)C(=O)NCCc2ccc(F)cc2)nn1.Cl	> 32 µg/mL	> 32 µg/mL	4 µg/mL	64 µg/mL	19.1 µg/mL	> 32 µg/mL	4 µg/mL	> 32 µg/mL	4 µg/mL	64 µg/mL	16 µg/mL
COc1cc(NC(=O)[C@@H](CCCNC(=N)N)n2cc(COc3ccccc3-c3ccccc3OCCC(C)C)nn2)cc(OC)c1.Cl	> 32 µg/mL	> 32 µg/mL	4 µg/mL	32 µg/mL	12.2 µg/mL	> 32 µg/mL	4 µg/mL	> 32 µg/mL	4 µg/mL	32 µg/mL	8 µg/mL
COLISTIN	0.25 µg/mL	0.125 µg/mL				0.25 µg/mL		0.25 µg/mL			
CC(C)CCOc1ccccc1-c1ccccc1OCc1cn([C@H](CCCNC(=N)N)C(=O)NCCc2ccccc2)nn1.Cl	32 µg/mL	> 32 µg/mL	4 µg/mL	8 µg/mL	17.9 µg/mL	> 32 µg/mL	4 µg/mL	> 32 µg/mL	2 µg/mL	32 µg/mL	8 µg/mL
CC(C)CCOc1ccc2ccccc2c1-c1c(OCc2cn([C@H](CCCCN)C(=O)N[C@H](CCCNC(=N)N)C(=O)NCc3ccccc3)nn2)ccc2ccccc12.Cl.Cl	32 µg/mL	> 32 µg/mL	8 µg/mL	16 µg/mL	17.4 µg/mL	32 µg/mL	8 µg/mL	32 µg/mL	8 µg/mL	16 µg/mL	4 µg/mL
CC(C)CCOc1ccccc1-c1ccccc1OCc1cn([C@H](CCCCN)C(=O)NCCc2ccccc2)nn1.Cl	32 µg/mL	> 32 µg/mL	8 µg/mL	32 µg/mL	> 32 µg/mL	> 32 µg/mL	8 µg/mL	> 32 µg/mL	8 µg/mL	32 µg/mL	8 µg/mL
CC(C)CCOc1ccc2ccccc2c1-c1c(OCC(=O)N[C@H](CCCNC(=N)N)C(=O)NCCc2ccc(F)cc2)ccc2ccccc12.Cl	> 32 µg/mL	> 32 µg/mL	> 128 µg/mL	> 128 µg/mL	> 32 µg/mL	> 32 µg/mL	> 128 µg/mL	> 32 µg/mL	> 128 µg/mL	64 µg/mL	4 µg/mL
CC(C)CCOc1ccc2ccccc2c1-c1c(OCc2cn([C@H](CCCCN)C(=O)N[C@H](CCCNC(=N)N)Cn3cc(CC4CCCCC4)nn3)nn2)ccc2ccccc12.Cl.Cl	8 µg/mL	> 32 µg/mL	4 µg/mL	16 µg/mL	16.6 µg/mL	32 µg/mL	4 µg/mL	> 32 µg/mL	4 µg/mL	16 µg/mL	2 µg/mL
CC(C)CCOc1ccc2ccccc2c1-c1c(OCc2cn([C@H](CCCNC(=N)N)C(=O)N[C@H](CCCCN)Cn3cc(CCc4ccccc4)nn3)nn2)ccc2ccccc12.Cl.Cl	32 µg/mL	> 32 µg/mL	2 µg/mL	16 µg/mL	> 32 µg/mL	32 µg/mL	4 µg/mL	> 32 µg/mL	4 µg/mL	16 µg/mL	4 µg/mL
CC(C)CCOc1ccccc1-c1ccccc1OCc1cn([C@H](CCCCN)C(=O)N[C@H](CCCNC(=N)N)Cn2cc(Cc3ccccc3)nn2)nn1.Cl.Cl	16 µg/mL	8 µg/mL	4 µg/mL	8 µg/mL	17.1 µg/mL	16 µg/mL	8 µg/mL	32 µg/mL	4 µg/mL	16 µg/mL	4 µg/mL
CC(C)CCOc1ccccc1-c1ccccc1OCc1cn([C@H](CCCNC(=N)N)C(=O)NCc2cc(F)cc(F)c2)nn1.Cl	> 32 µg/mL	> 32 µg/mL	16 µg/mL	32 µg/mL	22.9 µg/mL	> 32 µg/mL	8 µg/mL	> 32 µg/mL	8 µg/mL	32 µg/mL	
